Results reported in paper PMC9898036, “VIP152 is a selective CDK9 inhibitor with pre-clinical in vitro and in vivo efficacy in chronic lymphocytic leukemia” (Leukemia, 2022).
Read-outs that look alike come from different tables or passages of the source.

Experiments:
Assay in all cases: DiscoverX KINOMEscan kinase profiling (468 assays)
Format in all cases: binding
[1] = target: human kinome (Homo sapiens, UniProt Q9Y4K4); settings: MAP4K5; 100 nM; read-out: Percent Control
Method in brief: (§1)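 VIP152 was run in DMSO, alongside a DMSO control. Readout was qPCR of DNA-tagged kinase still bound to bead-immobilized biotinylated kinase ligands after compound competition.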

[2] = target: human kinome (Homo sapiens, UniProt P35916); settings: FLT4; 100 nM; read-out: Percent Control
Method in brief: as §1

[3] = target: human kinome (Homo sapiens, UniProt P06213); settings: INSR; 100 nM; read-out: Percent Control
Method in brief: as §1

[4] = target: human kinome (Homo sapiens, UniProt Q9NYY3); settings: read-out: Percent Control
Sequence of human kinome (Homo sapiens, UniProt Q9NYY3) (Q9NYY3 whole entry): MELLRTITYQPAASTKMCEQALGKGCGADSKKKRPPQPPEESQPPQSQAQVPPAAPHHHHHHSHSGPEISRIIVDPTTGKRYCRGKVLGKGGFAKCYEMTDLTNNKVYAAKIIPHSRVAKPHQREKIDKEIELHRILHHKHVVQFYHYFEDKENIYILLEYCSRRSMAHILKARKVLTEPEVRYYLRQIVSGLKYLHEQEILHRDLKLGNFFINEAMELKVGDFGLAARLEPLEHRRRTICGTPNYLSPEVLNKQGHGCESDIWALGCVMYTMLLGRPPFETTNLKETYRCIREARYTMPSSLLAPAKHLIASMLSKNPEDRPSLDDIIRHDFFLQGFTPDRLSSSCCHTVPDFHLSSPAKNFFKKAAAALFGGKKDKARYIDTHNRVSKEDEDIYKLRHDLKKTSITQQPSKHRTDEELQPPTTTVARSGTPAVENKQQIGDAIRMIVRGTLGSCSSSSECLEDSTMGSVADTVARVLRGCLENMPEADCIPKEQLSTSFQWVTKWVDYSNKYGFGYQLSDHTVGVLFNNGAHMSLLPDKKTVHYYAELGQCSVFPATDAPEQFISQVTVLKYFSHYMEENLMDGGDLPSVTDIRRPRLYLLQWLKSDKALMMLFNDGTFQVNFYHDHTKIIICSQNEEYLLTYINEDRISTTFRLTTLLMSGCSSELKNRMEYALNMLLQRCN
Method in brief: as §1

[5] = target: human kinome (Homo sapiens, UniProt O00329); settings: read-out: Percent Control
Sequence of human kinome (Homo sapiens, UniProt O00329) (O00329 whole entry): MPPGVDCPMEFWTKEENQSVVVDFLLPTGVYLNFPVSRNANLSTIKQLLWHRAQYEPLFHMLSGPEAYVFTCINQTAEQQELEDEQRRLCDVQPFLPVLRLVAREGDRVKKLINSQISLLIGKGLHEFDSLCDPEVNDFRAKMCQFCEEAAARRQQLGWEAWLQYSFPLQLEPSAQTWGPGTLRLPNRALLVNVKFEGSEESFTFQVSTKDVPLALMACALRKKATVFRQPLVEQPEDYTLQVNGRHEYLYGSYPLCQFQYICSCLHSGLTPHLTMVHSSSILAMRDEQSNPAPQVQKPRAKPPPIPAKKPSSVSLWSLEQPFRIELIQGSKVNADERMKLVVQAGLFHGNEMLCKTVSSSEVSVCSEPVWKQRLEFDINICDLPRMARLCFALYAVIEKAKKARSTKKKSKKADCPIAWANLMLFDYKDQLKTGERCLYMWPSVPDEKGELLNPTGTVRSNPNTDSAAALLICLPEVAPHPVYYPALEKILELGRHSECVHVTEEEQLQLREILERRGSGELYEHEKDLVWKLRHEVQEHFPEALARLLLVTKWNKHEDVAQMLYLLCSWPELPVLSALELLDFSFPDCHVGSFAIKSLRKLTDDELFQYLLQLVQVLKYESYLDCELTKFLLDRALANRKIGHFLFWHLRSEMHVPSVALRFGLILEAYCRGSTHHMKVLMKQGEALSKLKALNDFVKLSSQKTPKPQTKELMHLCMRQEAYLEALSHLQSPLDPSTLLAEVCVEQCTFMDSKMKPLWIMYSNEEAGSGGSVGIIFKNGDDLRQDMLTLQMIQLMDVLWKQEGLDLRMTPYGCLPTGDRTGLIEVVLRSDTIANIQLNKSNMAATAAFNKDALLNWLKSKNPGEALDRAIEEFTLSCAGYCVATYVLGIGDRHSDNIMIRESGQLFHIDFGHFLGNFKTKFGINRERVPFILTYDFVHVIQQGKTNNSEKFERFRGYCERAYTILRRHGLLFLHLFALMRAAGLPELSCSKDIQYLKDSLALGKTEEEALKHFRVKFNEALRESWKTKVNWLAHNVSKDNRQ
Method in brief: as §1

[6] = target: human kinome (Homo sapiens, UniProt P35968); settings: kinase VEGFR2 (Entrez KDR); compound concentration 1000 nM; read-out: Percent Control
Method in brief: as §1

[7] = target: human kinome (Homo sapiens, UniProt P49841); settings: GSK3B; 100 nM; read-out: Percent Control
Method in brief: as §1

[8] = target: human kinome (Homo sapiens, UniProt Q16620); settings: kinase TRKB (Entrez NTRK2); compound concentration 1000 nM; read-out: Percent Control
Method in brief: as §1

[9] = target: human kinome (Homo sapiens, UniProt Q9P289); settings: MST4; 100 nM; read-out: Percent Control
Sequence of human kinome (Homo sapiens, UniProt Q9P289) (Q9P289 whole entry): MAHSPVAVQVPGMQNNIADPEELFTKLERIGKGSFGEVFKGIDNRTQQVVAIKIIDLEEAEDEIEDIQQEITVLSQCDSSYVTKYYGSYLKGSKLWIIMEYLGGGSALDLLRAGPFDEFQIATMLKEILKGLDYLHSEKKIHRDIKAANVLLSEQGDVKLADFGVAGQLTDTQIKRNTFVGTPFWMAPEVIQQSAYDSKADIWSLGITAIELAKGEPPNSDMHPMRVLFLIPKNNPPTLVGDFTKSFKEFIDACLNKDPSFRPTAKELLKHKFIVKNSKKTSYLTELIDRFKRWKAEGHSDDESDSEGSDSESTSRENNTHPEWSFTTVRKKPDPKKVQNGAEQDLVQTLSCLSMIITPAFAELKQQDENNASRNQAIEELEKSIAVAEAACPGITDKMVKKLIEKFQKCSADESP
Method in brief: as §1

[10] = target: human kinome (Homo sapiens, UniProt P11802); settings: 100 nM, read-out: Percent Control
Sequence of human kinome (Homo sapiens, UniProt P11802) (P11802 whole entry): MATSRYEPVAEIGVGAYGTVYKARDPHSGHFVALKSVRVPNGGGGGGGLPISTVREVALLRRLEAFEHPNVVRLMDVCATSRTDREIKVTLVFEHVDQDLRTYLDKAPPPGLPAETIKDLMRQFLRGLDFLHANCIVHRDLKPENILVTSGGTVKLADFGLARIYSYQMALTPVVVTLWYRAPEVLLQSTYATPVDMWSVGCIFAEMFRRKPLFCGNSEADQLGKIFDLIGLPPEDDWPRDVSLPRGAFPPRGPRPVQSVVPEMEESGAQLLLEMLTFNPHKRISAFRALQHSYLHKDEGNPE
Method in brief: as §1

[11] = target: human kinome (Homo sapiens, UniProt Q9BX84); settings: kinase TRPM6 (Entrez TRPM6); compound concentration 1000 nM; read-out: Percent Control
Method in brief: as §1

[12] = target: human kinome (Homo sapiens, UniProt Q13554); settings: CAMK2B; 100 nM; read-out: Percent Control
Method in brief: as §1

[13] = target: human kinome (Homo sapiens, UniProt P42336); settings: read-out: Percent Control
Sequence of human kinome (Homo sapiens, UniProt P42336) (P42336 whole entry): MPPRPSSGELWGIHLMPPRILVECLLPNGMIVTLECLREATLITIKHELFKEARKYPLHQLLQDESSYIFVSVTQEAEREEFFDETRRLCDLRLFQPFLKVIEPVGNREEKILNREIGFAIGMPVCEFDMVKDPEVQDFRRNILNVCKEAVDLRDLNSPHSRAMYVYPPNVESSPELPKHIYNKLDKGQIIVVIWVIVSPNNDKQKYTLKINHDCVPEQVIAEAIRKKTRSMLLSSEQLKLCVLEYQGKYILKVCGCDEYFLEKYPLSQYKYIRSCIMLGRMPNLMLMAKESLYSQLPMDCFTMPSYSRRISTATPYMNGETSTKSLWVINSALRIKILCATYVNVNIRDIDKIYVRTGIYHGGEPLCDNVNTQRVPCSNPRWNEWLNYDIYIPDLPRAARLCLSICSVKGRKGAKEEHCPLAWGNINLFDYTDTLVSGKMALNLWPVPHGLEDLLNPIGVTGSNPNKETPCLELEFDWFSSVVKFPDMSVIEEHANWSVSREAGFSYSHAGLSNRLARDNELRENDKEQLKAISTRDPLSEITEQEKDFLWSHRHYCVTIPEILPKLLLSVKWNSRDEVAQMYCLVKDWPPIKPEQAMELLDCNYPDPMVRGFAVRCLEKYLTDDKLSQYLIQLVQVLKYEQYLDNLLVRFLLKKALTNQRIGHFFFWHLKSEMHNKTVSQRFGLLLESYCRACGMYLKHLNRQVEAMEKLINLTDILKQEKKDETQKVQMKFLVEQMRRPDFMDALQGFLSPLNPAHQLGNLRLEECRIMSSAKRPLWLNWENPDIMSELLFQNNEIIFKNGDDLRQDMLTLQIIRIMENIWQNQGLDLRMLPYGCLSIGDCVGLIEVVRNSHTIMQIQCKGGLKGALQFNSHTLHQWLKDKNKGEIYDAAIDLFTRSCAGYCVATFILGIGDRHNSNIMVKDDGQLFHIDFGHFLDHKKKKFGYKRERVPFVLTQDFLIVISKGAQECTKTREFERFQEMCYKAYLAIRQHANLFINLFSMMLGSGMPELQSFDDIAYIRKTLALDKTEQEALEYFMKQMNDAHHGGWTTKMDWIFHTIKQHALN
Method in brief: as §1

[14] = target: human kinome (Homo sapiens, UniProt P23443); settings: kinase S6K1 (Entrez RPS6KB1); compound concentration 1000 nM; read-out: Percent Control
Method in brief: as §1

[15] = target: human kinome (Homo sapiens, UniProt Q6DT37); settings: DMPK2 (Entrez CDC42BPG); 100 nM; read-out: Percent Control
Method in brief: as §1

[16] = target: human kinome (Homo sapiens, UniProt Q86V86); settings: read-out: Percent Control
Method in brief: as §1

[17] = target: human kinome (Homo sapiens, UniProt Q9HAZ1); settings: CLK4; 100 nM; read-out: Percent Control
Method in brief: as §1

[18] = target: human kinome (Homo sapiens, UniProt O94806); settings: read-out: Percent Control
Method in brief: as §1

[19] = target: human kinome (Homo sapiens, UniProt Q52WX2); settings: kinase SBK1 (Entrez SBK1); compound concentration 1000 nM; read-out: Percent Control
Method in brief: as §1

[20] = target: human kinome (Homo sapiens, UniProt P15056); settings: BRAF; 100 nM; read-out: Percent Control
Method in brief: as §1

[21] = target: human kinome (Homo sapiens, UniProt O75460); settings: ERN1; 100 nM; read-out: Percent Control
Method in brief: as §1

[22] = target: human kinome (Homo sapiens, UniProt P31749); settings: AKT1; 100 nM; read-out: Percent Control
Method in brief: as §1

[23] = target: human kinome (Homo sapiens, UniProt Q15375); settings: EPHA7; 100 nM; read-out: Percent Control
Method in brief: as §1

[24] = target: human kinome (Homo sapiens, UniProt Q9UQ88); settings: CDC2L2; 100 nM; read-out: Percent Control
Method in brief: as §1

[25] = target: human kinome (Homo sapiens, UniProt P42681); settings: kinase TXK (Entrez TXK); compound concentration 1000 nM; read-out: Percent Control
Method in brief: as §1

[26] = target: human kinome (Homo sapiens, UniProt Q9H0K1); settings: kinase SIK2 (Entrez SIK2); compound concentration 1000 nM; read-out: Percent Control
Method in brief: as §1

[27] = target: human kinome (Homo sapiens, UniProt P16234); settings: read-out: Percent Control
Sequence of human kinome (Homo sapiens, UniProt P16234) (P16234 24-1089): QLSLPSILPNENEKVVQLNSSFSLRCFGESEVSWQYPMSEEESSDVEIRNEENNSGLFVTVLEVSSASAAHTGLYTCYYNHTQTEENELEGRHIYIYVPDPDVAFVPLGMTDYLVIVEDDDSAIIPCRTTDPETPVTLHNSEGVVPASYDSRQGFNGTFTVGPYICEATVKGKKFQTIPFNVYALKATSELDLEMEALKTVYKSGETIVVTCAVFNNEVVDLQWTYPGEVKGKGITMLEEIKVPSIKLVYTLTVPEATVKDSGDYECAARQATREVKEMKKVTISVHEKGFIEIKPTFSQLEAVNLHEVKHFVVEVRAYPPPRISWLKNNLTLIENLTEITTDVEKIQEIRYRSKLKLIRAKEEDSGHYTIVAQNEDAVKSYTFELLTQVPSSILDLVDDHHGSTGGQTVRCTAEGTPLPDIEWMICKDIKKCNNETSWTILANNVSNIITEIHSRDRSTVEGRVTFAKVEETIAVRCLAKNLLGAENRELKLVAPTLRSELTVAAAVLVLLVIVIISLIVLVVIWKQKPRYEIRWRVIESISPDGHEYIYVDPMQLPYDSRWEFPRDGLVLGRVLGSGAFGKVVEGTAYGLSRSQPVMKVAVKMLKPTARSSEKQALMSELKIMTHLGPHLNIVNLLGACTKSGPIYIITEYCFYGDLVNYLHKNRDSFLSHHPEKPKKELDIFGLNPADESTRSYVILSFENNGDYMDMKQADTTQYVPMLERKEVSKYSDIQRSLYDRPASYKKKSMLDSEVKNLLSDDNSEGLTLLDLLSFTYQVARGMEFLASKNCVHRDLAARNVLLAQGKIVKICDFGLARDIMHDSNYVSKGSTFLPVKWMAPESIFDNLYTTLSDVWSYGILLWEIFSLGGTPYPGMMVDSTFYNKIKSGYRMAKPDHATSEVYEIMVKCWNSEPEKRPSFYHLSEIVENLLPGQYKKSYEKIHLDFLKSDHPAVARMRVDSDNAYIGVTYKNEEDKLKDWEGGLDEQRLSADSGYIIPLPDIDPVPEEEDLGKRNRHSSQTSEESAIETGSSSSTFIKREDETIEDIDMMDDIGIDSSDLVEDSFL
Method in brief: as §1

[28] = target: human kinome (Homo sapiens, UniProt P22694); settings: read-out: Percent Control
Method in brief: as §1

[29] = target: human kinome (Homo sapiens, UniProt Q7L7X3); settings: kinase TAOK1 (Entrez TAOK1); compound concentration 1000 nM; read-out: Percent Control
Method in brief: as §1

[30] = target: human kinome (Homo sapiens, UniProt Q16584); settings: MLK3 (Entrez MAP3K11); 100 nM; read-out: Percent Control
Method in brief: as §1

COc1cc(F)ccc1-c1cc(Nc2cc(CS(C)(=N)=O)ccn2)ncc1F (stereo not drawn) [VIP152]
remaining binding at 0.1 µM [1]: 94%
remaining binding at 0.1 µM [2]: 100%
remaining binding at 0.1 µM [3]: 100%
remaining binding at 0.1 µM ([4]; PLK2, 100 nM): 100%
remaining binding at 1 µM ([4]; kinase PLK2 (Entrez PLK2), compound concentration 1000 nM): 83%
remaining binding at 0.1 µM ([5]; PIK3CD, 100 nM): 100%
remaining binding at 1 µM ([5]; kinase PIK3CD (Entrez PIK3CD), compound concentration 1000 nM): 75%
remaining binding at 1 µM [6]: 55%
remaining binding at 0.1 µM [7]: 72%
remaining binding at 1 µM [8]: 30%
remaining binding at 0.1 µM [9]: 100%
remaining binding at 0.1 µM ([10]; CDK4-cyclinD1): 85%
remaining binding at 0.1 µM ([10]; CDK4-cyclinD3): 92%
remaining binding at 0.1 µM ([10]; CDK4): 100%
remaining binding at 1 µM [11]: 96%
remaining binding at 0.1 µM [12]: 100%
remaining binding at 0.1 µM ([13]; PIK3CA, 100 nM): 100%
remaining binding at 1 µM ([13]; kinase PIK3CA (Entrez PIK3CA), compound concentration 1000 nM): 95%
remaining binding at 1 µM [14]: 100%
remaining binding at 0.1 µM [15]: 100%
remaining binding at 0.1 µM ([16]; PIM3, 100 nM): 100%
remaining binding at 1 µM ([16]; kinase PIM3 (Entrez PIM3), compound concentration 1000 nM): 100%
remaining binding at 0.1 µM [17]: 100%
remaining binding at 0.1 µM ([18]; PRKD3, 100 nM): 91%
remaining binding at 1 µM ([18]; kinase PRKD3 (Entrez PRKD3), compound concentration 1000 nM): 100%
remaining binding at 1 µM [19]: 100%
remaining binding at 0.1 µM [20]: 100%
remaining binding at 0.1 µM [21]: 88%
remaining binding at 0.1 µM [22]: 100%
remaining binding at 0.1 µM [23]: 100%
remaining binding at 0.1 µM [24]: 100%
remaining binding at 1 µM [25]: 83%
remaining binding at 1 µM [26]: 79%
remaining binding at 0.1 µM ([27]; PDGFRA, 100 nM): 100%
remaining binding at 1 µM ([27]; kinase PDGFRA (Entrez PDGFRA), compound concentration 1000 nM): 80%
remaining binding at 0.1 µM ([28]; PKAC-beta (Entrez PRKACB), 100 nM): 100%
remaining binding at 1 µM ([28]; kinase PKAC-beta (Entrez PRKACB), compound concentration 1000 nM): 94%
remaining binding at 1 µM [29]: 62%
remaining binding at 0.1 µM [30]: 100%
